25 molecules from US11590116B2 (THERAVANCE BIOPHARMA R&D IP, LLC, priority 2019, dated 2023) can be followed below.

For assay [1], the target named is T1, recombinant human ALK5 (TGF-βR1) protein (Homo sapiens, UniProt P36897).
T1 construct: purchased Life Technologies PR9075A
T1 sequence (P36897 34-503): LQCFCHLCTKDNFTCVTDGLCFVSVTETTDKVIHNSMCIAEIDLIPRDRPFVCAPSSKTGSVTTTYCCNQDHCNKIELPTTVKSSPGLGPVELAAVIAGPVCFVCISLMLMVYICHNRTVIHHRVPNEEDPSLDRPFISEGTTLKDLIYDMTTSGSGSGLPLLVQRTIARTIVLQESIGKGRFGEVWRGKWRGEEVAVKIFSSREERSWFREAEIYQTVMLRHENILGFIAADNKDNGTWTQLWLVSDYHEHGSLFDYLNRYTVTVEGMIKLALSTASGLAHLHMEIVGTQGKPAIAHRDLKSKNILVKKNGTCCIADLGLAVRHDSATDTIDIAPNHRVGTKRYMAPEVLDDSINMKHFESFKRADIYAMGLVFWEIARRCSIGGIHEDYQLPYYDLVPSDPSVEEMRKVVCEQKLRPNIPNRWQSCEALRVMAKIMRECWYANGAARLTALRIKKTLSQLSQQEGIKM
The experiment in a line: Biochemical ALK5 (TGF-βR1) assay to measure pKi (LANCE Ultra ULight kinase assay). Conditions: apparent pKi from pIC50 by Cheng-Prusoff, read-out: ALK5 pKi (converted). Put shortly:
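Dose range 10 μM–25 pM; enzyme + compound 60 min RT; ATP added (5× stock 125 μM, 2 mM DTT); 60 min 37 °C; stop with EDTA + Eu anti-phospho-Topo IIα Thr1342 Ab; TR-FRET ex 320/340, em 665 nm. 4-param pIC50 → pKi (Cheng-Prusoff).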
(In TR-FRET formats the signal depends on donor and acceptor labels being close together.)

In assay [2] the test system is TGF-β-stimulated SMAD3 phosphorylation in BEAS-2B cells. The experiment in a line: Cellular ALK5 potency assay, inhibition of TGF-β stimulated pSMAD3 formation in BEAS-2B cells. The class given is cell-based. The conditions noted are these: Homo sapiens; inhibition of TGF-β stimulated pSMAD3 formation, BEAS-2B cells; read-out: BEAS2B pIC50 (converted). An outline of the steps: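 Potency is reported as pIC50, derived from concentration-dependent reduction of pSMAD3 AlphaLISA signal against TGF-β-stimulated cells without compound. BEAS-2B cells received compound for 1 h before a 30-min stimulation with 10 ng/mL TGF-β.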

As to `Cc1cccc(-c2n[nH]cc2-c2ccc3ncc(N4CC[C@H](N(C)C)C4)cc3c2)n1` (racemic) [Compound 70, rac-(3S)-N,N-dimethyl-1-[6-[3-(6-methyl-2-pyridyl)-1H-pyrazol-4-yl]-3-quinolyl]pyrrolidin-3-amine], in assay [1], the Ki was below 0.0316 nM. In addition, the IC50 in assay [2] was 25.1 to 158 nM.
The corresponding values for `Cc1cccc(-c2[nH]cnc2-c2ccc3ncc(NC(=O)C4CN5CCN4CC5)cc3c2)n1` (centres unmarked) [Compound 406, N-[6-[5-(6-methyl-2-pyridyl)-1H-imidazol-4-yl]-3-quinolyl]-1,4-diazabicyclo[2.2.2]octane-2-carboxamide] are 0.0398 to 0.316 nM and 200 to 1260 nM.
`CCOC(=O)c1c(-c2cccc(F)c2)cnc2ccc(-c3c[nH]nc3-c3cccc(C)n3)nc12` [Compound 859, ethyl 3-(3-fluorophenyl)-6-[3-(6-methyl-2-pyridyl)-1H-pyrazol-4-yl]-1,5-naphthyridine-4-carboxylate]: in assay [1], the Ki is 0.398 to 3.16 nM. In addition, the IC50 in assay [2] was 200 to 1260 nM.
Taken in the same sequence, the figures for `Cc1cccc(-c2[nH]cnc2-c2ccc3nccc(C(=O)OC[C@H]4CC[C@H](N)CC4)c3c2)n1` [Compound 1081, (4-aminocyclohexyl)methyl 6-[5-(6-methyl-2-pyridyl)-1H-imidazol-4-yl]quinoline-4-carboxylate] were 0.398 to 3.16 nM and 200 to 1260 nM.
Consider `Cc1cccc(-c2[nH]cnc2-c2ccc3ncc(NCCN4CCN[C@@H](CO)C4)cc3c2)n1` [Compound 708, [(2R)-4-[2-[[6-[5-(6-methyl-2-pyridyl)-1H-imidazol-4-yl]-3-quinolyl]amino]ethyl]piperazin-2-yl]methanol], for which the Ki in assay [1] was 0.0398 to 0.316 nM. For the same molecule, in assay [2], the IC50 is 200 to 1260 nM.
The corresponding values for `Cc1cccc(-c2n[nH]cc2-c2ccc3ncc(-c4cn(CCN5CCOCC5)nn4)cc3n2)n1` [Compound 340, 4-[2-[4-[6-[3-(6-methyl-2-pyridyl)-1H-pyrazol-4-yl]-1,5-naphthyridin-3-yl]triazol-1-yl]ethyl]morpholine] are 0.0398 to 0.316 nM and 25.1 to 158 nM.
The corresponding values for `CNCCn1cc(-c2cnc3ccc(-c4c(-c5ccc(F)c(C)n5)nc5ccccn45)cc3c2)cn1` [Compound 79, 2-[4-[6-[2-(5-fluoro-6-methyl-2-pyridyl)imidazo[1,2-a]pyridin-3-yl]-3-quinolyl]pyrazol-1-yl]-N-methyl-ethanamine] are 0.0398 to 0.316 nM and 25.1 to 158 nM.
The corresponding values for `Cc1cccc(-c2[nH]cnc2-c2ccc3ncc(C4=CCC5(CC4)CNC5)cc3c2)n1` [Compound 294, 3-(2-azaspiro[3.5]non-6-en-7-yl)-6-[5-(6-methyl-2-pyridyl)-1H-imidazol-4-yl]quinoline] are 0.0398 to 0.316 nM and 25.1 to 158 nM.
On to `Cc1cccc(-c2[nH]cnc2-c2ccc3ncc(-c4ncc(C(=O)OCC5CNC5)s4)cc3c2)n1` [Compound 1236, azetidin-3-ylmethyl 2-[6-[5-(6-methyl-2-pyridyl)-1H-imidazol-4-yl]-3-quinolyl]thiazole-5-carboxylate], for which the Ki in assay [1] is 0.0398 to 0.316 nM. Moreover, in assay [2], the IC50 is 25.1 to 158 nM.
Take `Cc1cccc(-c2n[nH]cc2-c2ccc3ncc(C(=O)NCCN4CCN(C(C)C)CC4)cc3n2)n1` [Compound 378, N-[2-(4-isopropylpiperazin-1-yl)ethyl]-6-[3-(6-methyl-2-pyridyl)-1H-pyrazol-4-yl]-1,5-naphthyridine-3-carboxamide]: the Ki in assay [1] is 0.0398 to 0.316 nM. Besides, the IC50 in assay [2] was 25.1 to 158 nM.
Taken in the same sequence, the figures for `Cc1cccc(-c2[nH]cnc2-c2ccc3ncc(-c4ccnc(C(=O)O[C@H]5CCNC5)c4)cc3c2)n1` [Compound 1058, [(3S)-pyrrolidin-3-yl] 4-[6-[5-(6-methyl-2-pyridyl)-1H-imidazol-4-yl]-3-quinolyl]pyridine-2-carboxylate] were 0.0398 to 0.316 nM and 200 to 1260 nM.
Consider `Cc1cccc(-c2n[nH]cc2-c2ccc3ncc(-c4cnco4)cc3n2)n1` [Compound 317, 5-[6-[3-(6-methyl-2-pyridyl)-1H-pyrazol-4-yl]-1,5-naphthyridin-3-yl]oxazole], for which the Ki in assay [1] was 0.0398 to 0.316 nM. For the same molecule, the IC50 in assay [2] is below 20 nM.
For `Cc1cccc(-c2n[nH]cc2-c2ccc3ncc(-c4cnn(CCN(C)C)c4)cc3n2)n1` [Compound 221, N,N-dimethyl-2-[4-[6-[3-(6-methyl-2-pyridyl)-1H-pyrazol-4-yl]-1,5-naphthyridin-3-yl]pyrazol-1-yl]ethanamine], the Ki in assay [1] is below 0.0316 nM. The IC50 in assay [2] was 25.1 to 158 nM.
Regarding `Cc1cccc(-c2nc3ccccn3c2-c2ccc3ncc(N4CCNCC4)cc3n2)n1` [Compound 473, 2-[2-(6-methyl-2-pyridyl)imidazo[1,2-a]pyridin-3-yl]-7-piperazin-1-yl-1,5-naphthyridine], in assay [1], the Ki was 0.0398 to 0.316 nM. For the same molecule, the IC50 in assay [2] was 25.1 to 158 nM.
Taken in the same sequence, the figures for `Cc1cccc(-c2n[nH]cc2-c2ccc3nccc(NCC(=O)N4CCOCC4)c3n2)n1` [Compound 825, 2-[[6-[3-(6-methyl-2-pyridyl)-1H-pyrazol-4-yl]-1,5-naphthyridin-4-yl]amino]-1-morpholino-ethanone] were 0.398 to 3.16 nM and 25.1 to 158 nM.
As for `Cc1cccc(-c2[nH]cnc2-c2ccc3ncc(C(=O)O[C@H]4CCC[C@H](N)C4)cc3c2)n1` (racemic) [Compound 774, [rac-(1S,3S)-3-aminocyclohexyl] 6-[5-(6-methyl-2-pyridyl)-1H-imidazol-4-yl]quinoline-3-carboxylate], in assay [1], the Ki is 0.398 to 3.16 nM. For the same molecule, the IC50 in assay [2] was 200 to 1260 nM.
The corresponding values for `Cc1cccc(-c2[nH]ncc2-c2ccc3ncc(C(=O)OC[C@H]4CCCCN4)cc3c2)n1` (racemic) [Compound 1194, [rac-(2R)-2-piperidyl]methyl 6-[5-(6-methyl-2-pyridyl)-1H-pyrazol-4-yl]quinoline-3-carboxylate] are 0.0398 to 0.316 nM and below 20 nM.
Turning to `CCc1cccc(-c2n[nH]cc2-c2ccc3ncc(N4CCC(N(C)C)CC4)cc3n2)n1` [Compound 348, 1-[6-[3-(6-ethyl-2-pyridyl)-1H-pyrazol-4-yl]-1,5-naphthyridin-3-yl]-N,N-dimethyl-piperidin-4-amine], in assay [1], the Ki was below 0.0316 nM. For the same molecule, the IC50 in assay [2] is 25.1 to 158 nM.
The corresponding values for `Cc1cccc(-c2[nH]cnc2-c2ccc3ncc(C4=CCN(C(=O)[C@@H]5CCCN5)CC4)cc3c2)n1` [Compound 779, [4-[6-[5-(6-methyl-2-pyridyl)-1H-imidazol-4-yl]-3-quinolyl]-3,6-dihydro-2H-pyridin-1-yl]-[(2S)-pyrrolidin-2-yl]methanone] are 0.0398 to 0.316 nM and 25.1 to 158 nM.
Regarding `Cc1cccc(-c2[nH]cnc2-c2ccc3ncc(-c4cccc(C(=O)O[C@H]5CCNC5)n4)cc3c2)n1` [Compound 1089, [(3S)-pyrrolidin-3-yl] 6-[6-[5-(6-methyl-2-pyridyl)-1H-imidazol-4-yl]-3-quinolyl]pyridine-2-carboxylate], in assay [1], the Ki is 0.0398 to 0.316 nM. For the same molecule, in assay [2], the IC50 is 25.1 to 158 nM.
As to `Cc1cccc(-c2n[nH]cc2-c2ccc3nccc(N4CCC(N5CCOCC5)CC4)c3n2)n1` [Compound 847, 4-[1-[6-[3-(6-methyl-2-pyridyl)-1H-pyrazol-4-yl]-1,5-naphthyridin-4-yl]-4-piperidyl]morpholine], the Ki in assay [1] is 0.0398 to 0.316 nM. Moreover, the IC50 in assay [2] was 25.1 to 158 nM.
Taken in the same sequence, the figures for `CCN1CCC(N(C)c2cnc3ccc(-c4c[nH]nc4-c4cccc(C)n4)nc3c2)CC1` [Compound 662, N-(1-ethyl-4-piperidyl)-N-methyl-6-[3-(6-methyl-2-pyridyl)-1H-pyrazol-4-yl]-1,5-naphthyridin-3-amine] were 0.0398 to 0.316 nM and 25.1 to 158 nM.
Taken in the same sequence, the figures for `Cc1nc(-c2n[nH]cc2-c2ccc3ncc(-c4ncn5c4NCC5)cc3n2)ccc1F` [Compound 284, 7-(2,3-dihydro-1H-imidazo[1,5-a]imidazol-7-yl)-2-[3-(5-fluoro-6-methyl-2-pyridyl)-1H-pyrazol-4-yl]-1,5-naphthyridine] were 0.0398 to 0.316 nM and 25.1 to 158 nM.
For the molecule `Cc1cccc(-c2[nH]cnc2-c2ccc3ncc(-c4ccc(C(=O)O[C@@H]5CCN(C)C5)s4)cc3c2)n1` [Compound 1009, (R)-1-methylpyrrolidin-3-yl 5-(6-(5-(6-methylpyridin-2-yl)-1H-imidazol-4-yl)quinolin-3-yl)thiophene-2-carboxylate], the Ki in assay [1] is 0.0398 to 0.316 nM. Besides, the IC50 in assay [2] is 25.1 to 158 nM.
The corresponding values for `Cc1cccc(-c2[nH]cnc2-c2ccc3ncc(Nc4nc(CN5CCNCC5)cs4)cc3c2)n1` [Compound 164, N-[6-[5-(6-methyl-2-pyridyl)-1H-imidazol-4-yl]-3-quinolyl]-4-(piperazin-1-ylmethyl)thiazol-2-amine] are 0.0398 to 0.316 nM and 200 to 1260 nM.
